We go through 5 compounds from patent publication US20230340020A1, “PEPTIDE LIGANDS FOR BINDING TO MT1-MMP” (priority 2016, published 2023).

One may read the Ki as a measure of affinity in units of concentration, obtained from inhibition or displacement.

One data set deals with MT1-MMP. The data set can be described thus: Species cross-reactivity with MT1-MMP. Particulars: murine, dog, cynomolgus and human MT1-MMP. Format: binding.
The next data set has as its target T1, MT1-MMP hemopexin domain (Homo sapiens, UniProt P50281).
T1 construct: residues Cys319-Gly511 from the human gene; His6 (N); made in house; host or cells: HEK293 (transient, pEXPR-IBA42 vector)
The experiment in a line: Fluorescence polarisation competition binding to MT1-MMP hemopexin domain. As to conditions: read-out: Binding Affinity Ki(h). From the text:
The MT1-MMP hemopexin-like repeats (also known as the MT1-MMP hemopexin domain), residues Cys319-Gly511 from the human gene, were transiently expressed in HEK293 cells as secreted N-terminally His6-tagged soluble protein, using the pEXPR-IBA42 (IBA) expression vector. Following expression, the protein was purified by Nickel-NTA affinity chromatography followed by gel filtration, and purity was checked by SDS-PAGE. Batch to batch variability was also monitored by fluorescence thermal shift experiments in the presence/absence of a hemopexin domain binding bicycle.
Binding affinity was measured using competition assays using Fluorescence Polarisation (anisotropy). […]
Here, a pre-formed complex of PEX with the fluorescent PEX-binding tracer is titrated with free, non-fluoresceinated bicyclic peptide. […] Dissociation of the complex can be measured quantitatively, and the Kd of the competitor (titrant) to the target protein determined. The advantage of the competition method is that the affinities of non-fluoresceinated bicyclic peptides can be determined accurately and rapidly.
Subsequently, the non-fluorescent competitor bicyclic peptide (usually just the bicycle core sequence) is titrated, such that it displaces the fluorescent tracer from the target protein. The displacement of the tracer is measured and associated with a drop in fluorescence polarisation. […]
In general terms: In fluorescence polarisation assays a small probe gives low polarisation when free and higher when bound to something large.

Data set [1] is described as follows: Plasma stability in human serum. Format: in vitro ADME. As to conditions: 4 μm concentration. The text has this: (§1) The stability appears to be slightly greater than that of the corresponding conjugates in which the peptide is linked to the scaffold by three thioether linkages.
Data set [2] in a line: Plasma stability in mouse serum. It is filed as in vitro ADME. As to conditions: 4 μM concentration.
Description: as §1

The nature of data set [3]: Tolerability in HT1080 tumor-bearing mice. As to conditions: mouse, in vivo; biw dosing, up to 14 days, BALB/c nude mice; read-out: tolerated dose. As to the method:
BALB/c nude mice were inoculated subcutaneously at the right flank with HT1080 tumor cells […] in 0.2 ml of PBS for tumor development. 39 animals were randomized when the average tumor volume reached […].
The BDC compounds were formulated at 0.03 mg/ml in a vehicle buffer containing 25 mM histidine and 10% Sucrose. The formulations were administered twice weekly (biw) at 0.3, 1, 3 and 10 mg/kg. Tumor volume and body weight were measured up to 14 days from the first dosing.

Starred links: 1 amine or outer side, 2 acyl side, 3 side chain; linkers in the order of their positions; H or OH if unused. Positions of bridges follow the written chain, without caps; N, C: chain ends. Non-standard residues stand in square brackets, D forms with d. Residues, ends and D or L forms follow the SMILES beside them. 1Nal = N[C@@H](Cc1cccc2ccccc12)C(=O)O; TBMB = c1c(C[*:1])cc(C[*:3])cc1C[*:2]; Tle = CC(C)(C)[C@H](N)C(=O)O; βAla = NCCC(=O)O; Sar = CNCC(=O)O

In the case of “17-69-07-N268: stabilised derivative of 17-69-07; Dap homologues have SEQ ID 17 (ACANEAACEDFYDGC; non-natural residues D-Ala, 1Nal, tBuGly, Dap; bicycle; VARIANT 2 /replace="Dap" or "N-AlkDap" or "N-HAlkDap"; MOD_RES 3 D-amino acid; MOD_RES 6 Fmoc-L-1-Naphthylalanine; MOD_RES 7 D-amino acid; VARIANT 8 /replace="Dap" or "N-AlkDap" or "N-HAlkDap"; MOD_RES 14 Fmoc-alpha-tert-butylglycine; VARIANT 15 /replace="Dap" or "N-AlkDap" or "N-HAlkDap"; MISC_FEATURE - /note="Variant residues given in the sequence have nopreference with respect to those in the a)”, in the data set on MT1-MMP, the “cross-reactivity with MT1-MMP of other species” value is “fully cross reactive”.
Still for that read-out and setting: under `C[C@H](NC(=O)CN(C)C(=O)CN(C)C(=O)CN(C)C(=O)CN(C)C(=O)CN(C)C(=O)CN(C)C(=O)CN(C)C(=O)CN(C)C(=O)CN(C)C(=O)CN(C)C(=O)CCN)C(=O)N[C@H]1CSCc2cc3cc(c2)CSC[C@H](NC(=O)[C@@H](C)NC(=O)[C@H](Cc2cccc4ccccc24)NC(=O)[C@H](CCC(=O)O)NC(=O)[C@H](CC(N)=O)NC(=O)[C@@H](C)NC1=O)C(=O)N[C@@H](CCC(=O)O)C(=O)N[C@@H](CC(=O)O)C(=O)N[C@@H](Cc1ccccc1)C(=O)N[C@@H](Cc1ccc(O)cc1)C(=O)N[C@@H](CC(=O)O)C(=O)N[C@@H](C(C)(C)C)C(=O)N[C@H](C(N)=O)CSC3` [17-69-07-N241, H-(β-Ala)-Sar10-Ala-Cys-(D-Ala)-Asn-Glu-(1Nal)-(D-Ala)-Cys-Glu-Asp-Phe-Tyr-Asp-(tBuGly)-Cys-NH2] (H-[βAla][Sar][Sar][Sar][Sar][Sar][Sar][Sar][Sar][Sar][Sar]AC[dA]NE[1Nal][dA]CEDFYD[Tle]C-NH2; linker 13-19-26 via TBMB) stands “fully cross reactive”.
For the compound `CC(=O)N[C@@H](C)C(=O)N[C@H]1CN(C)Cc2cc3cc(c2)CN(C)C[C@@H](C(N)=O)NC(=O)[C@H](C(C)(C)C)NC(=O)[C@H](CC(=O)O)NC(=O)[C@H](Cc2ccc(O)cc2)NC(=O)[C@H](Cc2ccccc2)NC(=O)[C@H](CC(=O)O)NC(=O)[C@H](CCC(=O)O)NC(=O)[C@H](CSC3)NC(=O)[C@@H](C)NC(=O)[C@H](Cc2cccc3ccccc23)NC(=O)[C@H](CCC(=O)O)NC(=O)[C@H](CC(N)=O)NC(=O)[C@@H](C)NC1=O` [17-69-07-N479, Ac-A(Dap(Me))(D-Ala)NE(1Nal)(D-Ala)CEDFYD(tBuGly)(Dap(Me))], the Ki on MT1-MMP hemopexin domain was determined as 15.6 nM.
As to `CC[C@H](C)[C@@H]([C@@H](CC(=O)N1CCC[C@H]1[C@H](OC)[C@@H](C)C(=O)N[C@H](C)[C@@H](O)c1ccccc1)OC)N(C)C(=O)[C@@H](NC(=O)[C@H](C(C)C)N(C)C(=O)OCc1ccc(NC(=O)[C@H](CCCNC(N)=O)NC(=O)[C@@H](NC(=O)Cn2cc(CCC(=O)NCCC(=O)N(C)CC(=O)N(C)CC(=O)N(C)CC(=O)N(C)CC(=O)N(C)CC(=O)N(C)CC(=O)N(C)CC(=O)N(C)CC(=O)N(C)CC(=O)N(C)CC(=O)N[C@@H](C)C(=O)N[C@H]3CNCc4cc5cc(c4)CSC[C@H](NC(=O)[C@@H](C)NC(=O)[C@H](Cc4cccc6ccccc46)NC(=O)[C@H](CCC(=O)O)NC(=O)[C@H](CC(N)=O)NC(=O)[C@@H](C)NC3=O)C(=O)N[C@@H](CCC(=O)O)C(=O)N[C@@H](CC(=O)O)C(=O)N[C@@H](Cc3ccccc3)C(=O)N[C@@H](Cc3ccc(O)cc3)C(=O)N[C@@H](CC(=O)O)C(=O)N[C@@H](C(C)(C)C)C(=O)N[C@H](C(N)=O)CNC5)nn2)C(C)C)cc1)C(C)C` [BT17BDC-53], in data set [1], the “T1/2 in human serum” value is “greater than 50 hours”. In addition, in data set [2], the “T1/2 in mouse serum” value was “greater than 50 hours”.
On to `CC[C@H](C)[C@@H]([C@@H](CC(=O)N1CCC[C@H]1[C@H](OC)[C@@H](C)C(=O)N[C@H](C)[C@@H](O)c1ccccc1)OC)N(C)C(=O)[C@@H](NC(=O)[C@H](C(C)C)N(C)C(=O)OCc1ccc(NC(=O)[C@H](CCCNC(N)=O)NC(=O)[C@@H](NC(=O)Cn2cc(CCC(=O)N[C@@H](C)C(=O)N[C@H]3CN(C)Cc4cc5cc(c4)CN(C)C[C@@H](C(N)=O)NC(=O)[C@H](C(C)(C)C)NC(=O)[C@H](CC(=O)O)NC(=O)[C@H](Cc4ccc(O)cc4)NC(=O)[C@H](Cc4ccccc4)NC(=O)[C@H](CC(=O)O)NC(=O)[C@H](CCC(=O)O)NC(=O)[C@H](CSC5)NC(=O)[C@@H](C)NC(=O)[C@H](Cc4cccc5ccccc45)NC(=O)[C@H](CCC(=O)O)NC(=O)[C@H](CC(N)=O)NC(=O)[C@@H](C)NC3=O)nn2)C(C)C)cc1)C(C)C` [BT17BDC-62], for which, in data set [3], the MTD is ~5 mg/kg.
